Reference: PMC10649961, “Novel Mitochondria-Targeted Amphiphilic Aminophosphonium Salts and Lipids Nanoparticles: Synthesis, Antitumor Activity and Toxicity” (Nanomaterials, 2023)
Where two headings read alike, the source gives them in different places. Where a SMILES comes first, the peptide text is derived from it. [ ]: non-standard residue; d: D form. Orn = NCCC[C@H](N)C(=O)O

How the values were obtained:
[1] = system: human volunteer donor erythrocytes; experiment: Hemolytic assay; assay type: cell-based; details: hemolysis in 50% of human erythrocytes, 1 h, 37 °C
Procedure: The hemolytic activity of Aminophosphonium Salts was assessed by comparing the optical density of a solution containing the test compound with the optical density of blood at 100% hemolysis. Healthy human volunteer donor erythrocytes were used as the object of the study. Red blood cells with EDTA (1.8 mg/mL) were washed three times with saline (0.9% NaCl), centrifuged for 10 min at 800× g rpm, and resuspended in saline (0.9% NaCl) to a concentration of 10%. The tested concentrations (0.1–100 μM) were prepared in physiological solution (0.9% NaCl) (with the addition of 5% DMSO). Compounds at the appropriate dilution (450 μL) were added to 50 μL of a 10% red blood cell suspension. Samples were incubated for 1 h at 37 °C and centrifuged for 10 min at 2000 rpm. The release of hemoglobin was controlled by measuring the optical density of the supernatant on an InvitroLogic microplate reader at λ = 540 nm. A control sample corresponding to zero hemolysis (blank experiment) was prepared by adding 50 μL of a 10% red blood cell suspension to 450 μL of saline (0.9% NaCl). A control sample corresponding to 100% hemolysis was prepared by adding 50 μL of a 10% red blood cell suspension to 450 μL of distilled water. Blood was taken at the Clinic of the Federal Research Center “Kazan Scientific Center of the Russian Academy of Sciences” from healthy donors with their personal consent.

[2] = system: M-HeLa; experiment: cells; details: Homo sapiens, 48 h, read-out: Cytotoxic Effects (IC50)
[3] = system: T98G
[4] = system: DU-145
[5] = system: MRSA-2; experiment: Antimicrobial activity, serial microdilutions, MRSA-2; assay type: cell-based, S. aureus; details: Staphylococcus aureus
Procedure: (§1) The antimicrobial activity of test compounds was determined by serial microdilutions in 96-well plates using Mueller-Hinton broth for bacterial culture and Sabouraud broth for yeast culture. Cultures of Gram-positive bacteria were used in the experiment: Staphylococcus aureus ATCC 6538 P FDA 209P, Bacillus cereus ATCC 10702 NCTC 8035, Enterococcus faecalis ATCC 29212; Gram-negative bacteria: Escherichia coli ATCC 25922, Pseudomonas aeruginosa ATCC 9027; and yeast: Candida albicans ATCC 10231, purchased from the State Collection of Pathogenic Microorganisms and Cell Cultures “SCPM-Obolensk” (Obolensk, Russia). Methicillin-resistant strains of S. aureus (MRSA) were isolated from patients with chronic tonsillitis (MRSA-1) and sinusitis (MRSA-2) in the bacteriological laboratory of the Republican Clinical Hospital (Kazan, Russia). The experiments were carried out in triplicate.

[6] = system: MCF-7; experiment: cells; details: Homo sapiens, MCF7, 48 h, read-out: Cytotoxic Effects (IC50)
[7] = system: Enterococcus faecalis ATCC 29212; experiment: Antimicrobial activity, serial microdilutions, Ef; assay type: cell-based; details: Enterococcus faecalis
Procedure: as §1

[8] = system: Bacillus cereus ATCC 10702 NCTC 8035; experiment: Antimicrobial activity, serial microdilutions, Bc; assay type: cell-based; parameters: key to Minimum bactericidal and fungicidal concentrations (MBC, MFC): – means non-active; details: Bc
Procedure: as §1

[9] = system: T98G; experiment: cells; details: Homo sapiens, 48 h, read-out: Cytotoxic Effects (IC50)
[10] = system: MCF-7
[11] = system: SK-OV-3
[12] = system: Pseudomonas aeruginosa ATCC 9027; experiment: Antimicrobial activity, serial microdilutions, Pa; assay type: cell-based; parameters: key to Minimum Inhibitory Concentration (MIC) / Minimum bactericidal and fungicidal concentrations (MBC, MFC): – means non-active
Procedure: as §1

[13] = system: PANC-1; experiment: cells; details: Homo sapiens, PANC-1, 48 h, read-out: Cytotoxic Effects (IC50)
[14] = system: HuTu 80
[15] = system: Staphylococcus aureus ATCC 6538 P FDA 209P; experiment: Antimicrobial activity, serial microdilutions, Sa; assay type: cell-based; details: Staphylococcus aureus
Procedure: as §1

[16] = system: Candida albicans ATCC 10231; experiment: Antimicrobial activity, serial microdilutions, Ca; assay type: cell-based; parameters: key to Minimum Inhibitory Concentration (MIC) / Minimum bactericidal and fungicidal concentrations (MBC, MFC): – means non-active; details: Ca
Procedure: as §1

[17] = system: A549
[18] = system: PC3; experiment: cells; details: Homo sapiens, PC-3, 48 h, read-out: Cytotoxic Effects (IC50), PC3, MTT assay, 48 h
[19] = system: Hep G2; experiment: cells; details: Homo sapiens, HepG2, 48 h, read-out: Cytotoxic Effects (IC50)
[20] = system: MRSA-1; experiment: Antimicrobial activity, serial microdilutions, MRSA-1; assay type: cell-based, S. aureus; parameters: key to Minimum Inhibitory Concentration (MIC) / Minimum bactericidal and fungicidal concentrations (MBC, MFC): – means non-active
Procedure: as §1

[21] = system: M-HeLa
[22] = system: PANC-1
[23] = system: DU-145; experiment: cells; details: Homo sapiens, DU-145, 48 h, read-out: Cytotoxic Effects (IC50), DU-145, MTT assay, 48 h
[24] = system: Escherichia coli ATCC 25922; experiment: Antimicrobial activity, serial microdilutions, Ec; assay type: cell-based; parameters: key to Minimum Inhibitory Concentration (MIC) / Minimum bactericidal and fungicidal concentrations (MBC, MFC): – means non-active
Procedure: as §1

[25] = system: PC3
[26] = In vivo acute toxicity, single intraperitoneal injection; parameters: species or system mice; details: male, CD-1, mouse, in vivo, ip, male CD-1 mice, single intraperitoneal administration, 14 days, Probit analysis
Procedure: (§2) The study of acute toxicity was performed on males of outbred white mice of the CD-1 line at the age of 2–3 months, weighing 20–30 g. The total number of mice participating in the experiment was 300. Mice were obtained from the Research and Production Enterprise Laboratory Animal Farm based at the Branch of Shemyakin and Ovchinnikov Institute of Bioorganic Chemistry of the Russian Academy of Sciences (Pushchino, Russia). The animals were kept in accordance with in standard conditions in a vivarium with 12 h of daylight and free access to food and water. The animals were fed complete feed made according to specifications (protein 22%, fiber 4% max., fat 5% max, ash 9% max, humidity 13.5% max, caloric value 295 kcal/100 g). The studies were conducted with a single parenteral–intraperitoneal (intra-peritoneal) injection, according to the method.
(§3) The substances were introduced in a sterile saline DMSO (40% vol.) solution. Solutions of the substances were prepared immediately before administration. The total volume of the injected liquid was 0.1 mL/10 g of animal weight. As a control, a group of mice was administered under similar conditions an equivalent amount (0.1 mL/10 g, or 10 mL/kg) of a solvent—40% DMSO on sterile saline solution. The substances were administered in doses ranging from 1 to 100 mg/kg; there were six animals in each group. To assess acute toxicity, the animals were monitored 14 days after administration of the substance, assessing their general condition and recording deaths.
(§4) The study of the acute toxicity parameters of six aminophosphonium salts 4a, 4b, 4d, 5a, 5b, and 6b was performed on male outbreed white mice of the CD-1 line. Acute toxicity was determined with a single parenteral (intraperitoneal) administration in sterile saline/DMSO (40% vol.) solution at doses from 1 to 100 mg/kg. To assess acute toxicity, the animals were monitored for 14 days after the introduction of substances, assessing their general condition and recording deaths. Next, lethal doses LD50, LD0, LD16, LD84, and LD100 were calculated using the Probit analysis method. LD0, LD16, LD84, and LD100 are given in Supplementary Material (Table S1).

[27] = system: mice of the CD-1 line; experiment: as above; details: for onset of animal death after administration: CD-1 mice, i.p., doses of LD100; for acute toxicity class: according to the classification [105], parenteral administration
Procedure: as §2, §3, §4

[28] = system: Hep G2
[29] = system: SK-OV-3; experiment: cells; details: Homo sapiens, SK-OV-3, 48 h, read-out: Cytotoxic Effects (IC50)
[30] = system: HuTu 80; experiment: cells; details: Homo sapiens, HuTu80, 48 h, read-out: Cytotoxic Effects (IC50)
[31] = system: A549; experiment: cells; details: Homo sapiens, A549, 48 h, read-out: Cytotoxic Effects (IC50)
[32] = system: WI38
[33] = reference normal cell line not marked at the place (ns cells)
[34] = read-out: Minimum Inhibitory Concentration (MIC)
[35] = read-out: Minimum bactericidal and fungicidal concentrations (MBC, MFC)
[36] = calculated relative to the cell line Chang liver (b)
[37] = calculated relative to the cell line WI38 (a)

CC(C)C[C@@H]1NC(=O)[C@H](CCCN)NC(=O)[C@H](C(C)C)NC(=O)[C@@H]2CCCN2C(=O)[C@@H](Cc2ccccc2)NC(=O)[C@H](CC(C)C)NC(=O)[C@H](CCCN)NC(=O)[C@H](C(C)C)NC(=O)[C@@H]2CCCN2C(=O)[C@@H](Cc2ccccc2)NC1=O [Gramicidin S, reference compound] (cyclo(L[dF]PV[Orn]L[dF]PV[Orn]))
HC50 [1]: 9.4 ± 0.8 µM

CCCCCC[P+](N(CC)CC)(N(CC)CC)N(CC)CC [4a, Tris(diethylamino)(hexyl)phosphonium iodide]
IC50 [2]: 52.4 ± 3.7 µM
selectivity index (SI) [3, 33]: ns (ns—no selectivity)
selectivity index (SI) [4, 33]: ns (ns—no selectivity)
MIC [5, 34]: 125 ± 11 µM
MBC [5, 35]: 125 ± 10 µM
IC50 [6]: 26 ± 1.8 µM
MIC ([7]; ATCC29212, read-out: Minimum Inhibitory Concentration (MIC)): 250 ± 21 µM
MBC ([7]; ATCC29212, read-out: Minimum bactericidal and fungicidal concentrations (MBC, MFC)): 500 ± 46 µM
MIC ([8]; Bacillus cereus, read-out: Minimum Inhibitory Concentration (MIC)): 62.5 ± 5.3 µM
Minimum bactericidal and fungicidal concentrations (MBC, MFC) [8]: –
IC50 [9]: 57.4 ± 4 µM
selectivity index (SI) [10, 33]: ns (ns—no selectivity)
selectivity index (SI) [11, 33]: ns (ns—no selectivity)
Minimum Inhibitory Concentration (MIC) [12]: –
Minimum bactericidal and fungicidal concentrations (MBC, MFC) [12]: –
IC50 [13]: 16.1 ± 1.3 µM
selectivity index (SI) [14, 36]: 1.6
MIC [15, 34]: 62.5 ± 5.2 µM
MBC [15, 35]: 250 ± 20 µM
Minimum Inhibitory Concentration (MIC) [16]: –
Minimum bactericidal and fungicidal concentrations (MBC, MFC) [16]: –
selectivity index (SI) [17, 33]: ns (ns—no selectivity)
IC50 [18]: 44 ± 3.1 µM
IC50 [19]: 46.6 ± 3.3 µM
Minimum bactericidal and fungicidal concentrations (MBC, MFC) [20]: –
MIC ([20]; Staphylococcus aureus, read-out: Minimum Inhibitory Concentration (MIC)): 125 ± 10 µM
selectivity index (SI) [21, 33]: ns (ns—no selectivity)
selectivity index (SI) [22, 36]: 1.1
IC50 [23]: 26.2 ± 1.9 µM
Minimum Inhibitory Concentration (MIC) [24]: –
Minimum bactericidal and fungicidal concentrations (MBC, MFC) [24]: –
selectivity index (SI) [25, 33]: ns (ns—no selectivity)
LD50 at 14 days [26]: 31.7 mg/kg
onset of animal death after administration [27]: 1 to 2 h
acute toxicity class [27]: moderately toxic
selectivity index (SI) [28, 33]: ns (ns—no selectivity)
IC50 [29]: 46.6 ± 3.5 µM
IC50 [30]: 11.4 ± 0.9 µM
IC50 [31]: 64.1 ± 4.5 µM

CCCCCC[P+](c1ccccc1)(N(CC)CC)N(CC)CC [5a, Bis(diethylamino)(hexyl)(phenyl)phosphonium iodide]
IC50 [2]: 23 ± 1.6 µM
times less toxic toward the normal WI38 cell line compared with doxorubicin [32]: 157 times
selectivity index (SI) [3, 37]: 3.7
selectivity index (SI) [4, 37]: 10
IC50 [6]: 17.1 ± 1.3 µM
IC50 [9]: 30.3 ± 2.1 µM
selectivity index (SI) [10, 37]: 3.7
selectivity index (SI) [11, 37]: 3.2
IC50 [13]: 17.8 ± 1.4 µM
selectivity index (SI) [14, 37]: 210
selectivity index (SI) [17, 37]: 3.7
IC50 [18]: 4.9 ± 0.4 µM
IC50 [19]: 16.5 ± 1.3 µM
selectivity index (SI) [21, 37]: 2.7
selectivity index (SI) [22, 37]: 3.5
IC50 [23]: 6.3 ± 0.5 µM
selectivity index (SI) [25, 37]: 13
LD50 at 14 days [26]: 44.7 mg/kg
onset of animal death after administration [27]: 1 to 2 h
acute toxicity class [27]: moderately toxic
selectivity index (SI) [28, 37]: 3.8
IC50 [29]: 20 ± 1.6 µM
IC50 [30]: 0.3 ± 0.02 µM
IC50 [31]: 17 ± 1.3 µM
